The values that follow are results of earlier work, collected in PMC4104431 (Nuclear medicine and biology, 2014).

In one data set the target is CXCR4 (Homo sapiens, UniProt P61073).
Chain of CXCR4 (P61073 whole entry): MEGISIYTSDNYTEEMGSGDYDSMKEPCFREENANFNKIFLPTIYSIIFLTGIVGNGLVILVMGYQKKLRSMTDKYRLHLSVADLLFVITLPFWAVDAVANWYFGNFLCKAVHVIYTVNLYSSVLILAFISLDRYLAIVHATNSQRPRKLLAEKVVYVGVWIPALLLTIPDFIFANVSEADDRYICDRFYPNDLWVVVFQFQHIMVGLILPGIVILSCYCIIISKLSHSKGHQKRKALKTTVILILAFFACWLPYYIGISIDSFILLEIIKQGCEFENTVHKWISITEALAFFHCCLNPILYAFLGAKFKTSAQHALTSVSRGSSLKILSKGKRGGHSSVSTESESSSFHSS

Consider `c1ccc(CNCc2ccc(CN3CCCNCCNCCCNCC3)cc2)nc1` [AMD3465], for which the Metabolic stability result was “metabolically stable”.
`c1cc(CN2CCCNCCNCCCNCC2)ccc1CN1CCCNCCNCCCNCC1` [AMD3100]: the Metabolic stability entry is “metabolically stable”. For the same molecule, on CXCR4, the “Fold increase in affinity for CXCR4 when bound to Cu(II)” value was 7 fold.
